The source of these data is patent US6566327B1, “Histogranin peptides and their analgesic use” (University of Ottawa, priority 1997, dated 2003).

Marks after values point to notes of the source that are not given here. Square brackets hold non-standard residues; d marks the D form. Peptide text beside a SMILES is read from it.

In data set [1] the test system is Male Swiss Webster mice. In words: Mouse acetic acid-induced writhing test (i.c.v. peptides). It is filed as in vivo. Conditions: for Potency ratio (95% CL): as compared with HN; for AD50 (nmol/mouse) (95% CL): method #2, percent analgesia; for AD50 (nmol/mouse) (95% CL) / ED50 (nmol/mouse) (95% CL): acetic acid i.p. 5 min after peptide, 95% CL in brackets; for ED50 (nmol/mouse) (95% CL): method #1, percent of mice showing analgesia. The method, then:
Mice (male 20-25 g, Swiss Webster) were obtained from Charles River (Canadian Breeding Farm, St. Constant, Quebec). They were housed five per cage in a room with controlled temperature (22±2° C.), humidity and artificial light (06.30-19 h). […] The experiments were authorized by the animal care committee of the University of Ottawa in accordance […] guidelines of the Canadian Council on Animal Care. The i.c.v. administrations of the peptides were performed as described by Shukla et al. (Shukla et al., Brain Res. 591, 176, 1992 the disclosure of which is incorporated by reference). Peptides were dissolved in double-distilled sterile water (vehicle) and 10 μl of the peptide solution or vehicle was delivered gradually within approximately 3 sec. […] The administration site was confirmed by injecting Indian ink in preliminary experiments. Mouse Writhing Test: Antinociceptive activity of the peptides was evaluated using the acetic acid-induced writhing test according to a modification (Shukla et al. Brain Research 591, 176, 1992 the disclosure of which is incorporated by reference) of the method of Hayashi and Takemori (Eur.J. Pharmacol. 16 63, 1971 the disclosure of which is incorporated by reference). […] An abdominal stretch is characterized by the contraction of the abdominal muscles, the arching of the back vent-ally such that the abdomen touches the bedding surface and the extension of one or both hind limbs. Mice were used once and then killed immediately. Groups of 10 mice were used for each dose. […] Biochem. Psycholpharmacol. 8:191, 1974, the disclosure of which is incorporated by reference). […] Pharmacol. Exp. Ther. 96 99, 1949, the disclosure of which is incorporated by reference) using procedure 47 of the computer program of Tallarida and Murray (in “Manual of pharmacological calculations with computer programs”, 2nd ed., Springer, New York, 1987, the disclosure of which is incorporated by reference). In the second case (method #2), the percentage of analgesia is calculated for each dose by the formula: [(mean number of writhes in control group-mean number of writhes for the test group)/(mean number of writhes in control group)×100]. […] Pharmacol. Exp. Ther 96, 99, 1949 the disclosure in which is incorporated by reference) using procedure 47 of the computer program of Tallarida and Murray (in “Manual of pharmacological calculations with computer programs”. 2nd ed., Springer, New York, 1987, the disclosure in which is incorporated by reference).
(In general: An intraperitoneal irritant provokes the stretching counted in writhing tests.)

Data set [2] is described as follows: Solubility noted in the compound description. The class given is physicochemical. Conditions: water and DMSO.

Take `N=C(N)NCCC[C@H]1NC(=O)[C@H](Cc2ccc(O)cc2)NC(=O)[C@@H](CCC(N)=O)NC(=O)CNC1=O` [Peptide 9, cyclic(-Gly-D-Gln-Tyr-D-Arg-)] (cyclo(G[dQ]Y[dR])): the “Potency ratio (95% CL)” value in data set [1] (method #2 (AD50)) is on record as 10.6 (3.6-31.0)*. Also, the “AD50 (nmol/mouse) (95% CL)” value in data set [1] is 2.23 (1.45-3.43) nmol/mouse.
Regarding `C[C@@H]1NC(=O)[C@H](CCC(N)=O)NC(=O)CNC(=O)[C@H](CCCNC(=N)N)NC(=O)[C@H](C)NC(=O)[C@H](CCC(N)=O)NC(=O)CNC(=O)[C@H](CCCNC(=N)N)NC1=O` [Peptide 5B] (cyclo(ARGQARGQ)), the “Potency ratio (95% CL)” value in data set [1] (method #2 (AD50)) is on record as 0.93 (0.22-3.9). The “AD50 (nmol/mouse) (95% CL)” value in data set [1] is reported as 25.3 (11.6-55.1) nmol/mouse. Also, in data set [2], the Solubility result is “Soluble in water and DMSO”.
For `NC(=O)CC[C@H]1NC(=O)CNC(=O)[C@@H](CCCN=C(N)N)NC(=O)[C@H](Cc2ccc(O)cc2)NC1=O` [Peptide 9, cyclic(-Gly-D-Gln-Tyr-D-Arg-)] (cyclo(G[dQ]Y[dR])), the Solubility entry in data set [2] was “Soluble in water and DMSO”.
Regarding `N=C(N)NCCC[C@H]1NC(=O)[C@H](Cc2ccc(O)cc2)NC(=O)[C@H](CCC(N)=O)NC(=O)CNC1=O` [Peptide 8, cyclic(-Gly-Gln-Tyr-D-Arg-)] (cyclo(GQY[dR])), the “Potency ratio (95% CL)” value in data set [1] (method #2 (AD50)) was 5.35 (1.04-26.4)*. In addition, in data set [1], the “AD50 (nmol/mouse) (95% CL)” value was 4.41 (1.7-11.9) nmol/mouse.
As to `C[C@H](NC(=O)[C@H](CCC(N)=O)NC(=O)[C@@H](N)CCCNC(=N)N)C(=O)N[C@@H](CCCNC(=N)N)C(=O)O` [Peptide 4, H-Arg-Gln-Ala-Arg-OH], the “Potency ratio (95% CL)” value was 4.5 (1.4-14.3) in data set [1] (method #1 (ED50)) and 1.86 (0.27-12.8) in data set [1] (method #2 (AD50)). The “ED50 (nmol/mouse) (95% CL)” value in data set [1] is reported as 4.9 (1.8-13.2) nmol/mouse. Further, the “AD50 (nmol/mouse) (95% CL)” value in data set [1] is on record as 12.7 (3.5-46.1) nmol/mouse. The Solubility entry in data set [2] is “Soluble in water and DMSO”.
With `NC(=O)CC[C@@H]1NC(=O)CNC(=O)[C@H](CCCN=C(N)N)NC(=O)[C@H](Cc2ccc(O)cc2)NC1=O` [Peptide 7, cyclic(-Gly-Gln-Tyr-Arg-)] (cyclo(GQYR)), in data set [2], the Solubility result was “Soluble in water and DMSO”.
In the case of `C[C@H](NC(=O)[C@H](CCC(N)=O)NC(=O)CN)C(=O)N[C@@H](CCCNC(=N)N)C(=O)O` [Peptide 3, H-Gly-Gln-Ala-Arg-OH] (H-GQAR-OH), the “Potency ratio (95% CL)” value in data set [1] (method #1 (ED50)) is 5.7 (2.0-15.9). The “Potency ratio (95% CL)” value in data set [1] (method #2 (AD50)) is given as 6.92 (0.84-56.2)*. Moreover, in data set [1], the “ED50 (nmol/mouse) (95% CL)” value was 3.9 (1.7-9.1) nmol/mouse and the “AD50 (nmol/mouse) (95% CL)” value is given as 3.41 (0.8-14.6) nmol/mouse.
On to `C[C@@H]1NC(=O)[C@H](CCC(N)=O)NC(=O)CNC(=O)[C@H](CCCNC(=N)N)NC1=O` [Peptide 5, cyclic(-Gly-Gln-Ala-Arg-)] (cyclo(ARGQ)), for which, in data set [1] (method #1 (ED50)), the “Potency ratio (95% CL)” value is on record as 7.7 (1.3-46.6). The “Potency ratio (95% CL)” value in data set [1] (method #2 (AD50)) is on record as 1.77 (0.11-28.1). For the same compound, in data set [1], the “ED50 (nmol/mouse) (95% CL)” value is recorded as 2.9 (0.8 -9.8) nmol/mouse and the “AD50 (nmol/mouse) (95% CL)” value was 13.3 (1.6-114) nmol/mouse. In data set [2], the Solubility entry was “Soluble in water and DMSO”.
Consider H-RQGRTLYGF-OH [Peptide 13], for which the “Potency ratio (95% CL)” value in data set [1] (method #1 (ED50)) was 3.0 (0.8-11.2). The “Potency ratio (95% CL)” value in data set [1] (method #2 (AD50)) is 2.43 (0.2-18). In data set [1], the “ED50 (nmol/mouse) (95% CL)” value was 7.5 (2.3 -24.4) nmol/mouse and the “AD50 (nmol/mouse) (95% CL)” value was 9.7 (2.5-37.4) nmol/mouse.
Take `N=C(N)NCCC[C@H](NC(=O)CNC(=O)[C@H](CCC(N)=O)NC(=O)[C@@H](N)CCCNC(=N)N)C(=O)O` [Peptide 1, H-Arg-Gln-Gly-Arg-OH] (H-RQGR-OH): the “Potency ratio (95% CL)” value in data set [1] (method #2 (AD50)) was 1.84 (0.3-12.5). In addition, in data set [1], the “AD50 (nmol/mouse) (95% CL)” value was 12.8 (3.6-46.1) nmol/mouse. Moreover, in data set [2], the Solubility result was “soluble in water and DMSO”.
As for `C[C@@H]1NC(=O)[C@H](CCC(N)=O)NC(=O)[C@H](CCCNC(=N)N)NC(=O)[C@H](CCCNC(=N)N)NC(=O)[C@H](C)NC(=O)[C@H](CCC(N)=O)NC(=O)[C@H](CCCNC(=N)N)NC(=O)[C@H](CCCNC(=N)N)NC1=O` [Peptide 6B] (cyclo(ARRQARRQ)), the Solubility result in data set [2] was “Soluble in water and DMSO”.
Still for that read-out and setting: then `C[C@H](NC(=O)[C@H](CCC(N)=O)NC(=O)CN)C(=O)N[C@@H](CCCN=C(N)N)C(=O)O` [Peptide 3, H-Gly-Gln-Ala-Arg-OH] (H-GQAR-OH), with “Soluble in water and DMSO”.
With `C[C@@H]1NC(=O)[C@H](CCC(N)=O)NC(=O)[C@H](CCCNC(=N)N)NC(=O)[C@H](CCCNC(=N)N)NC1=O` [Peptide 6, cyclic(-Arg-Gln-Ala-Arg-)], the “Potency ratio (95% CL)” value in data set [1] (method #2 (AD50)) is on record as 0.94 (0.22-3.98). Further, the “AD50 (nmol/mouse) (95% CL)” value in data set [1] is listed as 25.1 (11.3-55.6) nmol/mouse. The Solubility result in data set [2] was “Soluble in water and DMSO”.
With `N=C(N)NCCC[C@H](NC(=O)CNC(=O)[C@H](CCC(N)=O)NC(=O)CN)C(=O)O` [Peptide 2, H-Gly-Gln-Gly-Arg-OH] (H-GQGR-OH), the “Potency ratio (95% CL)” value in data set [1] (method #1 (ED50)) is given as 2.0 (0.6-6.3). Also, the “Potency ratio (95% CL)” value in data set [1] (method #2 (AD50)) is 0.91 (0.11-7.63). In data set [1], the “ED50 (nmol/mouse) (95% CL)” value is given as 11.3 (4.2-30.4) nmol/mouse and the “AD50 (nmol/mouse) (95% CL)” value is given as 25.9 (5.9-113) nmol/mouse. Besides, in data set [2], the Solubility entry was “Soluble in water and DMSO”.
Take `N=C(N)NCCC[C@@H]1NC(=O)[C@H](Cc2ccc(O)cc2)NC(=O)[C@H](CCC(N)=O)NC(=O)CNC1=O` [Peptide 7, cyclic(-Gly-Gln-Tyr-Arg-)] (cyclo(GQYR)): in data set [1] (method #2 (AD50)), the “Potency ratio (95% CL)” value is reported as 5.6 (1.25-25)*. Further, the “AD50 (nmol/mouse) (95% CL)” value in data set [1] is given as 4.21 (1.80-9.87) nmol/mouse.
